Read-outs that look alike come from different tables or passages of the source.
Experiments:
[1] = cited from earlier work
NASH with liver fibrosis = settings: cited from earlier work
TGFβ1-induced hHSC = assay: α-SMA ELISA in TGFβ1-activated human primary hepatic stellate cells (in vitro model of hepatic fibrogenesis); type: cell-based
Experimental: Serum-deprived HSC were preincubated for 1 hour with Elafibranor (A), Cenicriviroc (B), or Bezafibrate (PPAR pan α/γ/δ) before the activation with the profibrogenic cytokine TGFβ1 (1 ng/ml).
After 48 hours of incubation, the expression of α-SMA was measured by ELISA.
The obtained values were transformed into percentage inhibition over TGFβ1 control. Data are presented as mean (quadruplicates)±standard deviation (SD). Statistical analyses were performed by one-way ANOVA followed by Bonferroni post-hoc tests, using Sigma Plot 11.0 software. [*: p<0.05; **: p<0.01; ***: p<0.001 (comparison versus TGFβ1 1 ng/mL group)]. The curve fitting and the calculation of half maximal inhibitory concentration (IC50) were performed with XLFit software 5.3.1.3.
The human primary hepatic stellate cells (hHSC; Innoprot) were cultured in STeCM medium (ScienCell cat #5301) that was supplemented with 2% fetal bovine serum (FBS, ScienCell cat #0010), 1% penicillin/streptomycin (ScienCell cat #0503) and stellate cell growth supplement (SteCGS; ScienCell cat #5352). Cell-culture flasks were coated with Poly-L Lysine (Sigma cat #P4707) for a better adherence.
For these experiments, a checkerboard matrix was generated. […]
The level of α-SMA was measured using a Sandwich ELISA. […]

CDFF-fed mice = assay: Chronic CDFF diet fibrosing NASH mouse model (8 weeks); type: in vivo, C57Bl/6J mice; settings: Elafibranor 3 mg/kg/day, CVC 10 mg/kg/day or both
Experimental: The preventive effects of Elafibranor alone, CVC alone and their combination were assessed in a fibrosing NASH model of mice fed a CDAA+2% cholesterol+30% Milk fat diet and High Fructose Corn Syrup 55 (55% fructose/45% glucose for a final concentration of 42 g/L) in drinking water (Mells et al J Nutr Biochem 2015). 5-6 weeks old male C57Bl/6J mice were fed a control (CSAA) diet (n=4), CDFF diet (n=12), or CDFF diet supplemented with Elafibranor 3 mg/kg/day, CVC 10 mg/kg/day or combined drugs (Elafibranor 3 mg/kg/day combined to CVC 10 mg/kg/day) (n=8 per group) for 8 weeks.
The body weight, the food and water intake were monitored twice per week. On the last day of treatment, plasma samples were obtained from retro-orbital blood sampling and mice were sacrificed after a 6 h-fasting period. The liver was rapidly excised for biochemical and histological analyses. All animal procedures were performed according to standard protocols and in accordance with the standard recommendations for the proper care and use of laboratory animals.
A technician blinded to the source of each liver specimen performed histological examinations. Virtual slides were generated using the Pannoramic 250 scanner from 3D Histech. For each animal, a score summarizing the main histological lesions of NASH was attributed according to the NASH Clinical Research Network (Kleiner 2005, Brunt 1999). Briefly, steatosis, lobular inflammation and hepatocyte ballooning were scored. The NAFLD Activity Score (NAS score) was established for each individual as the unweighted sum of the steatosis (0-3), lobular inflammation (0-3) and the ballooning (0-2) injury grading.
Alanine aminotransferase (ALT) and aspartate aminotransferase (AST) concentrations were measured in plasma using the Randox kit for Daytona automate (Randox cat #AL 3801 and AS 3804, respectively). Plasma cytokeratin 18-M30, a surrogate marker of apoptosis, was measured using the Mouse Cytokeratin 18-M30 ELISA Kit (CUSABIO cat #CSB-E14265m), according to the manufacturer's recommendations. […]
Quantitative PCR was then carried out using the CFX96 Touch™ Real-Time PCR Detection System (Biorad). […]
Expression levels were normalized using the expression of GAPDH gene as a housekeeping gene of reference in samples. […] Expression levels were determined using the standard curve equation for both the housekeeping gene and the target gene (taking into account the specific PCR efficiency of each target gene).
To achieve this aim, NASH was induced by feeding C57Bl/6J mice with a choline-deficient L-amino-acid-defined-diet supplemented with 2% cholesterol and 30% milk fat, and high fructose corn syrup in drinking water (CDFF diet). […] NASH development was evaluated by histology, liver function tests, and biochemical and molecular analyses.

[2] = CVC 150 mg orally once daily, one year

Structure (SMILES) | solubility ([1]; 99.5% ethanol) | solubility ([1]; acetonitrile, 1-octanol, tetrahydrofuran) | solubility ([1]; aqueous solution at pH 3) | solubility ([1]; aqueous solution from pH 1 to 2) | solubility ([1]; aqueous solution from pH 4 to 13 and in water) | solubility ([1]; ethyl acetate and diethylether) | solubility ([1]; glacial acetic acid, methanol, benzyl alcohol, dimethylsulfoxide, N,N-dimethylformamide) | solubility ([1]; pyridine and acetic anhydride) | fibrosis as compared to placebo (NASH with liver fibrosis; [2]) | primary outcome (minimum 2-point improvement in NAS with at least 1-point reduction in lobular inflammation or hepatocellular ballooning) (NASH with liver fibrosis; [2]) | efficacy on NASH-induced fibrosis (NASH with liver fibrosis; recent phase 2B study) | antifibrotic activity (α-SMA) (TGFβ1-induced hHSC; 5 μM alone (FIG. 2C)) | antifibrotic effect as single agent (α-SMA) (TGFβ1-induced hHSC; hHSC, TGFβ1 1 ng/ml, 48 h, all doses (FIG. 1B, 1C)) | NAS score (disease activity) (CDFF-fed mice; 8 weeks (FIG. 4A)) | plasma CK18 concentration (CDFF-fed mice; 8 weeks (FIG. 4B)) | plasma AST concentration (CDFF-fed mice; 8 weeks (FIG. 4C)) | hepatic expression of genes related to inflammation, tissue remodeling and fibrogenesis (CDFF-fed mice; 8 weeks, qPCR (FIG. 5))
CCCCOCCOc1ccc(-c2ccc3c(c2)C=C(C(=O)Nc2ccc([S@@+]([O-])Cc4cncn4CCC)cc2)CCCN3CC(C)C)cc1.CS(=O)(=O)O [CVC mesylate, (S)-8-[4-(2-Butoxyethoxy)phenyl]-1-isobutyl-N-[4-[[(1-propyl-1H-imidazol-5-yl)methyl]sulfinyl]phenyl]-1,2,3,4-tetrahydro-1-benzazocine-5-carboxamide monomethanesulfonoate] | sparingly soluble | slightly soluble | sparingly soluble | freely soluble | practically insoluble | practically insoluble | freely soluble | soluble |  |  |  |  |  |  |  |  | 
CCCCOCCOc1ccc(-c2ccc3c(c2)/C=C(/C(=O)Nc2ccc([S@@+]([O-])Cc4cncn4CCC)cc2)CCCN3CC(C)C)cc1 [CVC, (S,E)-8-(4-(2-Butoxyethoxy)phenyl)-1-(2-methylpropyl)-N-(4-(((1-propyl-1H-imidazol-5-yl)methyl)sulfinyl)phenyl)-1,2,3,4-tetrahydrobenzo[b]azocine-5-carboxamide] |  |  |  |  |  |  |  |  | decrease of fibrosis in certain proportion of patients | not met | shown efficacy | does not show any antifibrotic activity | did not show a significant effect | no effect | no effect | no effect | no effect
